Measurements published in publication PMC8708382, “Heterocyclic Cathinones as Inhibitors of Kynurenine Aminotransferase II—Design, Synthesis, and Evaluation” (Pharmaceuticals, 2021).
Where a name gives a salt, the structure may show the parent alone. Read-outs that look alike come from different tables or passages of the source.

Legend:
hKAT-II = target: T1, hKAT-II (Homo sapiens, UniProt Q8N5Z0); experiment: Coupled fluorescence in vitro inhibition assay of hKAT-II; assay type: biochemical; settings: for Inhibitory Activity [%I ± SEM] c = 1 µM: 30 min pre-incubation with enzyme, mean ± SEM
T1 construct: hexahistidine tag (N); made in house; host or cells: E. coli BL21(DE3)-RIL
T1 sequence (Q8N5Z0 30-425): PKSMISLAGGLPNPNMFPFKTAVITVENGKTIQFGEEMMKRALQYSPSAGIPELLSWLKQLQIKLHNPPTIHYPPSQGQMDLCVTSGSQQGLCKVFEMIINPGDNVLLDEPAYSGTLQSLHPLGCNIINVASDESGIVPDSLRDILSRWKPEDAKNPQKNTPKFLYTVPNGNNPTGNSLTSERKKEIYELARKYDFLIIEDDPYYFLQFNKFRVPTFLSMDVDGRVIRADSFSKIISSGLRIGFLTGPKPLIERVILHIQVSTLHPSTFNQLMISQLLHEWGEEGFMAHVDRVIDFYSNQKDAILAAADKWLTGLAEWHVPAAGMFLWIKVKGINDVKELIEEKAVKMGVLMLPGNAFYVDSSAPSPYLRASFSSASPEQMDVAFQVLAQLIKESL
Protocol: The inhibitory activity of amino ketones 11 and 12 was evaluated using a fluorimetric in vitro assay. The activity was determined as the percentage of inhibition (%I) at a concentration of 1 µmol/L and also as IC50 values (Table 1). The observed inhibitory activity confirmed the validity of the computational model and was suitable to conduct a synthesis-directed SAR study around the predicted heterocyclic α-amino ketone structure.
The nucleotide sequence encoding hKAT-II gene was constructed by Invitrogen, Thermo Fisher Scientific. The hKAT-II gene, optimized for heterologous expression in E. coli, was cloned into a pET15b vector using NdeI-XhoI. The hKAT-II protein, carrying an N-terminal hexahistidine tag, was produced in E.coli BL21(DE3)-RIL cells for 4 h at 37 °C. The bacterial cells were then harvested and disintegrated using One-Shot. […] (25.000× g, 30 min) centrifugation cleared cell lysate containing hKAT-II was loaded on the top of a HisTrap Fast Flow column (Cytiva) equilibrated in loading buffer (40 mM Tris, pH 8; 1000 mM NaCl, 40 µM PLP, 5 mM MgCl2, 20 mM imidazole). Following elution of the bound proteins by the loading buffer containing 600 mM imidazole, purified hKAT-II was dialyzed into a storage buffer (20 mM Hepes pH 7.5; 50 mM NaCl, 70 µM PLP, 10% glycerol), concentrated to 1.0–1.5 mg/mL, aliquoted, and stored at −80 °C.
hKAT-II activity was measured using a fluorescence assay utilizing L-α-aminoadipic acid (AAD) and α-ketoglutarate as the substrates as previously described. The assay medium (100 µL) consisted of 0.75 µM of hKAT-II, 0.3 mM of AAD, 50 µM α-ketoglutarate, 3 mM NAD^+, 88 µg/mL of glutamic dehydrogenase, and 5 µM pyridoxal phosphate (PLP) in a 0.1 M phosphate buffer pH 7.5. The activity of the enzyme was assessed on a Spark multiple mode reader (Tecan Group Ltd., Männedorf, Switzerland) with an excitation wavelength of 340 nm and emission wavelength of 390 nm at 37 °C. The plate was shaken for 20 s before reading. The kinetic interval was set at 30 s between each reading, and data were collected for 30 min. The activity of the enzyme was assayed in pentaplicate in each measurement (n = 3). Kinetic data were then collected over a period of 30 min, and the linear part of the initial velocity was used to calculate the enzyme activity expressed as the slope of the linearized curve via the linear regression function (Excel, Microsoft, USA).
The inhibitory activity of the tested compounds was determined via 30 min pre-incubation with the enzyme at various concentrations of the inhibitor at room temperature in a 0.1 M phosphate buffer pH 7.5 with 5 µM PLP. The enzyme reaction was initiated by the addition of a substrate and cofactors. The final mixture contained 20 nM of hKAT-II, 0.3 mM of AAD, 50 µM α-ketoglutarate, 3 mM NAD^+, and 88 µg/mL of glutamic dehydrogenase. Kinetic data were collected over a period of 30 min, and the slope of the linearized curve was calculated as above. The inhibitory activity in %I at a given concentration was calculated for novel compounds using the following equation:(1) Inhibition [%I]=(V0− Vi/V0)×100, where V0 and Vi are the activity of the enzyme in the absence and presence of the inhibitor, respectively. All the data were obtained in pentaplicate for each measurement (n = 3). Alternatively, the IC50 values for selected novel compounds were assessed. GraphPad Prism 8 software (San Diego, USA) was used for the IC50 value calculation using non-linear regression (four parameters). […]

[1] = 30 min pre-incubation, 20 nM hKAT-II, non-linear regression (four parameters), read-out: IC50 ± SEM

| SMILES | Inhibitory Activity [%I ± SEM] c = 1 µM (hKAT-II; 20 nM hKAT-II) | melting point | IC50 (hKAT-II; [1]) | IC50 (hKAT-II) | IC50 (hKAT-II; assay validation, 30 min pre-incubation, 20 nM hKAT-II, read-out: IC50 of the reference inhibitor) |
| --- | --- | --- | --- | --- | --- |
| C[C@H](N)C(=O)c1cn(-c2ccc([N+](=O)[O-])cc2)nn1.Cl [Compound 26q] | 41.73 ± 2.66 %I | > 191 °C (dec.) | – | – | – |
| C[C@H](N)C(=O)c1cn(-c2ccc(C(F)(F)F)cc2)nn1 [Compound 26o] | 9.70 ± 1.67 %I | – | – | – | – |
| C[C@H](N)C(=O)c1cn(-c2cccc(Cl)c2)nn1 [Compound 26s] | 20.63 ± 3.78 %I | > 171 °C (dec.) | – | – | – |
| C[C@H](N)C(=O)c1cn(-c2ccc(Cl)cc2)nn1.Cl [Compound 26r] | 23.86 ± 2.95 %I | > 177 °C (dec.) | – | – | – |
| Cc1cccc(C)c1-n1cc(C(=O)[C@H](C)N)nn1 [Compound 26h] | 25.38 ± 2.22 %I | > 176 °C (dec.) | – | – | – |
| C[C@H](N)C(=O)c1cn(-c2ccc(F)cc2)nn1.Cl [Compound 26n] | 41.77 ± 3.01 %I | > 183 °C (dec.) | – | – | – |
| CC[C@H](N)C(=O)c1nc2ccc(F)cc2s1.Cl [Compound 34d] | 9.73 ± 1.41 %I | > 145 °C (dec.) | – | – | – |
| CC[C@H](N)C(=O)c1cn(-c2ccccc2)nn1.Cl [Compound 21e] | 21.82 ± 4.80 %I | – | – | – | – |
| CC(C)[C@H](N)C(=O)c1ncc(-c2ccccc2)s1 [Compound 25a] | 31.24 ± 3.64 %I | > 170 °C (dec.) | – | – | – |
| N[C@@H](Cc1ccccc1)C(=O)c1cn(-c2ccccc2)nn1 [Compound 21b] | 14.52 ± 3.71 %I | > 174 °C (dec.) | – | – | – |
| CC[C@H](N)C(=O)c1cn(-c2ccc(F)cc2)nn1.Cl [Compound 32c] | 35.94 ± 2.87 %I | > 182 °C (dec.) | – | – | – |
| N[C@H](C(=O)c1cn(-c2ccccc2)nn1)C1CC1 [Compound 21f] | 7.44 ± 3.75 %I | > 183 °C (dec.) | – | – | – |
| CC[C@H](N)C(=O)c1nc2ccccc2s1.Cl [Compound 34c] | 36.16 ± 3.81 %I | > 140 °C (dec.) | – | – | – |
| C[C@H](N)C(=O)c1ncc(-c2ccccc2)s1 [Compound 11, 2-alaninoyl-5-phenylthiazole] | 41.41 ± 4.15 %I | > 168 °C (dec.) | 1620 ± 1430 nM | – | – |
| C[C@H](N)C(=O)c1cn(-c2cccnc2)nn1 (as salt: hydrochloride) [Compound 26l] | – | 140 to 143 °C (dec.) | – | – | – |
| C[C@H](N)C(=O)c1cn(-c2ccc(F)cc2Cl)nn1 [Compound 32a] | 25.30 ± 1.10 %I | > 158 °C (dec.) | – | – | – |
| C[C@H](N)C(=O)c1cn(CCc2ccccc2)nn1.Cl [Compound 28b] | 11.84 ± 5.76 %I | > 172 °C (dec.) | – | – | – |
| N[C@@H](Cc1ccccc1)C(=O)c1ncc(-c2ccccc2)s1 [Compound 25b] | 7.22 ± 2.70 %I | > 175 °C (dec.) | – | – | – |
| COc1cccc(-n2cc(C(=O)[C@H](C)N)nn2)c1 [Compound 26b] | 18.20 ± 2.27 %I | > 171 °C (dec.) | – | – | – |
| Cc1ccc(-n2cc(C(=O)[C@H](C)N)nn2)c(C)c1 [Compound 26g] | 41.60 ± 6.39 %I | > 175 °C (dec.) | – | – | – |
| C[C@H](N)C(=O)c1cn(-c2cccnc2)nn1 [Compound 26l] | 23.63 ± 2.30 %I | – | – | – | – |
| CCCC[C@H](N)C(=O)c1ncc(-c2ccccc2)s1 [Compound 25d] | 37.22 ± 2.53 %I | 124 to 127 °C | – | – | – |

| SMILES | Inhibitory Activity [%I ± SEM] c = 1 µM (hKAT-II; 20 nM hKAT-II) | melting point | IC50 (hKAT-II; [1]) | IC50 (hKAT-II) | IC50 (hKAT-II; assay validation, 30 min pre-incubation, 20 nM hKAT-II, read-out: IC50 of the reference inhibitor) |
| --- | --- | --- | --- | --- | --- |
| N[C@@H](CCc1ccccc1)C(=O)c1ncc(-c2ccccc2)s1 [Compound 25c] | 31.32 ± 0.88 %I | > 135 °C (dec.) | – | – | – |
| CC[C@H](N)C(=O)c1ncc(-c2ccc(F)cc2)s1 [Compound 49b] | 57.07 ± 0.31 %I | > 150 °C (dec.) | – | – | – |
| C[C@H](N)C(=O)c1cn(-c2ccncc2)nn1.Cl.Cl [Compound 26m] | 33.48 ± 4.88 %I | > 183 °C (dec.) | – | – | – |
| C[C@H](N)C(=O)c1cn(-c2ccccn2)nn1.Cl [Compound 26k] | 20.73 ± 1.83 %I | > 198 °C (dec.) | – | – | – |
| CC[C@H](N)C(=O)c1cn(-c2ccc(F)cc2Cl)nn1 [Compound 32b] | 21.25 ± 0.67 %I | > 196 °C (dec.) | – | – | – |
| C[C@H](N)C(=O)c1cn(-c2ccccc2)nn1 [Compound 12, 4-alaninoyl-1-phenyl-1H-1,2,3-triazole] | 43.19 ± 2.30 %I | > 178 °C (dec.) | 3210 ± 260 nM | – | – |
| C[C@H](N)C(=O)c1nc2ccccc2s1.Cl [Compound 34a] | 52.49 ± 1.31 %I | > 156 °C (dec.) | – | – | – |
| C[C@H](N)C(=O)c1nc2ccc(F)cc2s1 [Compound 34b] | 56.60 ± 3.68 %I | > 152 °C (dec.) | – | 987 ± 88 nM | – |
| C[C@H](N)C(=O)c1cn(-c2ccc(F)c(Cl)c2)nn1 [Compound 26v] | 23.62 ± 4.30 %I | – | – | – | – |
| CC[C@H](N)C(=O)c1ncc(-c2ccccc2)s1 [Compound 25e] | 44.18 ± 3.42 %I | > 180 °C (dec.) | – | – | – |
| Cc1ccc(-n2cc(C(=O)[C@H](C)N)nn2)cc1 [Compound 26e] | 18.56 ± 2.33 %I | > 184 °C (dec.) | – | – | – |
| C[C@H](N)C(=O)c1cn(-c2ccc3ccccc3c2)nn1 [Compound 26j] | 27.81 ± 3.33 %I | > 182 °C (dec.) | – | – | – |
| CCCC[C@H](N)C(=O)c1cn(-c2ccccc2)nn1.Cl [Compound 21d] | 13.46 ± 5.46 %I | > 173 °C (dec.) | – | – | – |
| C[C@H](N)C(=O)c1cn(-c2cccc([N+](=O)[O-])c2)nn1.Cl [Compound 26p] | 41.43 ± 2.67 %I | > 183 °C (dec.) | – | – | – |
| C[C@H](N)C(=O)c1cn(-c2ccc(C(C)(C)C)cc2)nn1 [Compound 26d] | 0.98 ± 1.98 %I | > 181 °C (dec.) | – | – | – |
| C[C@H](N)C(=O)c1cn(-c2ccc(Cl)c(Cl)c2)nn1 [Compound 26u] | 19.33 ± 1.06 %I | > 163 °C (dec.) | – | – | – |
| C[C@H](N)C(=O)c1cn(-c2cccc3ccccc23)nn1 [Compound 26i] | 4.32 ± 1.32 %I | > 172 °C (dec.) | – | – | – |
| C[C@H](N)C(=O)c1cn(-c2ccccc2Cl)nn1.Cl [Compound 26t] | 35.52 ± 3.63 %I | 138 to 169 °C (dec.) | – | – | – |
| Cl.N[C@@H](CCc1ccccc1)C(=O)c1cn(-c2ccccc2)nn1 [Compound 21c] | 16.50 ± 3.71 %I | > 175 °C (dec.) | – | – | – |
| CC[C@H](N)C(=O)c1ncc(-c2ccc(F)cc2Cl)s1.Cl [Compound 49d] | 59.71 ± 0.97 %I | > 134 °C (dec.) | 304 ± 39 nM | – | – |
| N[C@H]1Cc2ccccc2N(O)C1=O [Compound 3, PF-04859989, reference compound] | – | – | – | – | 28 ± 5 nM |
| C[C@H](N)C(=O)c1ncc(-c2ccc(F)cc2)s1 [Compound 49a, 2-alaninoyl-5-(4-fluorophenyl)thiazole] | 61.54 ± 7.16 %I | – | 97 ± 14 nM | – | – |
